According to US20220289698A1, “INHIBITORS OF HUMAN ATGL” (Karl-Franzens-Universität Graz, priority 2019, published 2022):
Where two headings read alike, the source gives them in different places.

Tests used:
human ATGL = target: T1, human ATGL (Homo sapiens, UniProt Q96AD5); assay: TG hydrolase activity, Expi cell lysates expressing human ATGL + CGI-58, radiolabelled triolein; format: biochemical
T1 construct: made in house; host or cells: Expi cells (lysate, not purified)
T1 sequence (Q96AD5 1-504): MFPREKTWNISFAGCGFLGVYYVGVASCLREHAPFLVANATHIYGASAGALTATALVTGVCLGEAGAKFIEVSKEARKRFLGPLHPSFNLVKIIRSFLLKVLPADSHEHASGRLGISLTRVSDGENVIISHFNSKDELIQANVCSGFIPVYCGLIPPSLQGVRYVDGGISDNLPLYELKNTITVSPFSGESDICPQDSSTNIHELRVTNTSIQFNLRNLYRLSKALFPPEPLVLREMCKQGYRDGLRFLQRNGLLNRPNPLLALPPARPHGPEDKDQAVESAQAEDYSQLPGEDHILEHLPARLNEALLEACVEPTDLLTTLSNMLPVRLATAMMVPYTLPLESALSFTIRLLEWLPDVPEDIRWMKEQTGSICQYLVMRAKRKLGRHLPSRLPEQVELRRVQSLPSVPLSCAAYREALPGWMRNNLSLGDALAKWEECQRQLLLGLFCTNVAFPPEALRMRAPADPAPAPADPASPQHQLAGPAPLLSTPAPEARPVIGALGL
Experimental: Triglyceride (TG) hydrolase activity was measured as previously described (Schweiger M et al., Methods in Enzymology, 2014, 538:171-93). In brief, TG hydrolase activity was determined by adding recombinant purified CGI-58 to Expi cell lysates expressing human ATGL. For determination of cross-species reactivity Expi lysates expressing ATGL from different model organisms (e.g. mouse, rat, rhesus monkey, goat, etc.) were used. Samples were incubated with DMSO (carrier) or increasing concentrations of ATGL inhibitors dissolved in DMSO. TG substrate was prepared by emulsifying 330 μM radiolabelled triolein (40,000 c.p.m./nmol) and 45 μM phosphatidylcholine/phosphatidylinositol (3:1) in 100 mM potassium phosphate buffer (pH 7.0) by sonication and adjusting to 5% essentially FA-free BSA. TG substrate was added to the reaction mixture and incubated for 1 h at 37° C. in the water bath. The reaction was terminated by adding methanol/chloroform/heptane (10:9:7) and 0.1 M potassium carbonate with 0.1 M boric acid (pH 10.5). After centrifugation at 800 g for 15 min the radioactivity in the upper phase was determined by liquid scintillation counting and the rate of FA hydrolysis was calculated. IC50 values were determined as inhibitor concentration capable of inhibiting TG hydrolase activity by 50% as compared to DMSO control. Samples were measured as duplicates. The determination of IC50 values for human ATGL is illustrated in FIG. 1.

[1] = Example 237, read-out: Inhibition of human ATGL − IC50
[2] = Example 238, read-out: Inhibition of human ATGL IC50

SMILES	melting point [°C]	other results
CC(C)COc1ccc(-c2cccc(C(=O)OC(C)C)n2)cc1 [Example 96]	103 to 107	IC50 (human ATGL; [1]): 10 µM
COCc1ccc(-c2cc(OC)cc(C(=O)OC)n2)cc1 [Example 40]	65 to 68	IC50 (human ATGL; [1]): 10 µM
CCOc1ccc(-c2cccc(C(=O)OCCc3ccsc3)n2)cc1 [Example 196, 2-(Thiophen-3-yl)ethyl 6-(4-ethoxyphenyl)picolinate]	73 to 76	
CCOC(=O)c1csc(-c2ccc(C(C)(C)C)cc2)n1 [Example 186, Ethyl 2-(4-(tert-butyl)phenyl)thiazole-4-carboxylate]	50 to 52	
COc1cc(C(=O)OC2CCC2)nc(-c2ccc(OC(C)C)cc2)c1 [Example 203, Cyclobutyl 6-(4-isopropoxyphenyl)-4-methoxypicolinate]	116 to 118	IC50 (human ATGL; [2]): 10 µM
CCCc1ccc(-c2cccc(C(=O)OCC)n2)cc1 [Example 66]	68 to 69	IC50 (human ATGL; [1]): 10 µM
CCOc1ccc(-c2ccc(OC)c(C(=O)OC)n2)cc1 [NG-462]	114 to 116	
CCOc1ccc(-c2cccc(C(=O)OCC(C)(C)C)n2)cc1 [Example 4]	89 to 92	
COc1ccc(-c2cc(OC)cc(C(=O)OC(C)C)n2)cc1 [Example 206, Isopropyl 4-methoxy-6-(4-methoxyphenyl)picolinate]	59 to 61	IC50 (human ATGL; [2]): 5 µM
CSc1ccc(-c2cccc(C(=O)OC(C)C)n2)cc1 [Example 90]	60 to 61	IC50 (human ATGL; [1]): 3 µM
CC(C)OC(=O)c1cccc(-c2ccc(C#Cc3ccccc3)cc2)n1 [Example 63]	136 to 143	IC50 (human ATGL; [1]): 6 µM
CCOC(=O)c1cccc(-c2ccccc2)n1 [Example 39]	42 to 46	
CCOc1ccc(-c2cccc(C(=O)OCc3ccccc3)n2)cc1 [Example 22]	80 to 81	
CCOC(=O)c1cccc(-c2ccc(C(F)(F)F)cc2)n1 [Example 81]	110 to 112	
CCOc1ccc(-c2cccc(C(C)=O)n2)cc1 [NG-631]	80 to 86	
CC(C)OC(=O)c1cccc(-c2ccc(O)cc2)n1 [Example 10]	154 to 157	
CCOC(=O)c1csc(-c2ccc(O)cc2)n1 [Example 188, Ethyl 2-(4-hydroxyphenyl)thiazole-4-carboxylate]	171	
CCOc1ccc(-c2cccc(C(=O)OCc3ccncc3)n2)cc1 [Example 194, Pyridin-4-ylmethyl 6-(4-ethoxyphenyl)picolinate]	101 to 106	
CCOc1ccc(-c2cccc(C(=O)OCCc3ccccc3)n2)cc1 [Example 74]	80 to 82	
CCOc1ccc(-c2ccc(OC(C)=O)c(C(=O)OC)n2)cc1 [NG-477]	120 to 123	

SMILES	melting point [°C]	other results
CC(C)OC(=O)c1cccc(-c2ccc(Cl)c(Cl)c2)n1 [NG-481]	74 to 76	
CCSc1ccc(-c2cccc(C(=O)OC(C)C)n2)cc1 [Example 64]	93 to 96	IC50 (human ATGL; [1]): 6 µM
CCOc1ccc(-c2cccc(C(=O)OCCCO)n2)cc1 [Example 5]	61 to 63	
C#C[C@@H](C)OC(=O)c1cccc(-c2ccc(CCC)cc2)n1 [Example 71]	112 to 113	IC50 (human ATGL; [1]): 2 µM
CCc1ccc(-c2cc(OC)cc(C(=O)OC(C)C)n2)cc1 [Example 205, Isopropyl 6-(4-ethylphenyl)-4-methoxypicolinate]	51	IC50 (human ATGL; [2]): 3 µM
CCOc1ccc(-c2cccc(C(=O)OCc3ccccn3)n2)cc1 [Example 192, Pyridin-2-ylmethyl 6-(4-ethoxyphenyl)picolinate]	124 to 127	
CCOC(=O)Cc1cccc(-c2ccc(OCC)cc2)n1 [NG-640]	90 to 91	
CCOC(=O)c1cccc(-c2ccc(-c3cccnc3)cc2)n1 [Example 49]	84 to 104	IC50 (human ATGL; [1]): 20 µM
CCOC(=O)c1cccc(-c2ccc(-c3ccncc3)cc2)n1 [Example 50]	127 to 131	
CCOc1ccc(-c2cccc(C(=O)OCc3cccnc3)n2)cc1 [Example 193, Pyridin-3-ylmethyl 6-(4-ethoxyphenyl)picolinate]	107 to 110	
CC(C)OC(=O)c1cccc(-c2ccc(CCc3ccccc3)cc2)n1 [Example 67]	88 to 89	IC50 (human ATGL; [1]): 2 µM
[2H]C([2H])([2H])C([2H])(OC(=O)c1cc(OC)cc(-c2ccc(OC(C)C)cc2)n1)C([2H])([2H])[2H] [Example 204, Propan-2-yl-d7 6-(4-isopropoxyphenyl)-4-methoxypicolinate]	70 to 72	IC50 (human ATGL; [2]): 1 µM
CCOc1ccc(-c2cc(C)cc(C(=O)OC(C)C)n2)cc1 [Example 20]	85 to 88	IC50 (human ATGL; values of text and figure legend, read-out: IC50 on human ATGL (hATGL)): 4 µM
CCOC(=O)c1csc(-c2ccc(C)cc2)n1 [Example 184, Ethyl 2-(p-tolyl)thiazole-4-carboxylate]	39 to 41	
CCOc1ccc(-c2cccc(C(=O)OCCCOC)n2)cc1 [Example 3]	36 to 38	
CCOc1ccc(-c2cccc(C(=O)OC/C=C/c3ccccc3)n2)cc1 [Example 73]	110	IC50 (human ATGL; [1]): 3 µM
CC(C)OC(=O)c1cccc(C#Cc2ccccc2)n1 [Example 79]	85 to 86	
CC(C)OC(=O)c1cccc(-c2ccc(C(C)(C)C)cc2)n1 [Example 60]	104 to 106	
CC(C)OC(=O)c1cccc(-c2ccc(N(C)C)cc2)n1 [Example 17]	134 to 140	
CC(C)OC(=O)c1cccc(-c2ccc(C(F)(F)F)cc2F)n1 [NG-587]	96 to 97	

SMILES	melting point [°C]	other results
CCOc1ccc(-c2cccc(C(F)(F)F)n2)cc1 [NG-622]	100 to 101	
COC(=O)c1cccc(-c2ccc(C(F)(F)F)cc2)n1 [Example 78]	95 to 96	
CCCCCCOC(=O)c1cccc(-c2ccc(OCC)cc2)n1 [Example 7]	48 to 51	
CCOC(=O)c1ccc(-c2ccc(OCC)cc2)nc1 [NG-408]	106 to 108	
C#C[C@H](C)OC(=O)c1cccc(-c2ccc(CCC)cc2)n1 [Example 72]	112 to 113	
CCOc1ccc(-c2ccc(O)c(C(=O)OC)n2)cc1 [NG-461]	114 to 116	
CCOc1ccc(-c2cccc(C(=O)OCCc3ccco3)n2)cc1 [Example 191, 2-(Furan-2-yl)ethyl 6-(4-ethoxyphenyl)picolinate]	82 to 84	
CCOC(=O)c1cccc(-c2ccc(OCc3ccccc3)cc2)n1 [Example 9]	143 to 145	
CCOC(=O)c1cccc(-c2ccc(-c3ccccn3)cc2)n1 [Example 48]	130 to 132	IC50 (human ATGL; [1]): 25 µM
CCOc1ccc(-c2cccc(C(=O)OCCc3cccs3)n2)cc1 [Example 195, 2-(Thiophen-2-yl)ethyl 6-(4-ethoxyphenyl)picolinate]	73 to 78	
COc1cc(C(=O)OC(C)C)nc(-c2ccc(-c3cccnc3)cc2)c1 [Example 65]	118 to 121	IC50 (human ATGL; [1]): 6 µM
C=CCOC(=O)c1cccc(-c2ccc(C(F)(F)F)cc2)n1 [Example 82]	79 to 80	
CCOc1ccc(-c2cccc(C(=O)OCc3cncs3)n2)cc1 [Example 199, Thiazol-5-ylmethyl 6-(4-ethoxyphenyl)picolinate]	75 to 80	
CCC(C)OC(=O)c1cc(OC)cc(-c2ccc(OC(C)C)cc2)n1 (stereo not drawn) [Example 202, sec-Butyl 6-(4-Isopropoxyphenyl)-4-methoxypicolinate]	68	IC50 (human ATGL; [2]): 3 µM
CCOc1ccc(-c2cccc(C#N)n2)cc1 [NG-437]	109 to 111	
COc1ccc(C#Cc2ccc(-c3cccc(C(=O)OC(C)C)n3)cc2)cc1 [Example 92]	152 to 155	IC50 (human ATGL; [1]): 3 µM
CCCOc1ccc(-c2cc(OC)cc(C(=O)OC(C)C)n2)cc1 [Example 59]	79 to 81	IC50 (human ATGL; [1]): 3 µM
CCOC(=O)c1csc(-c2ccc(C(F)(F)F)cc2)n1 [Example 183, Ethyl 2-(4-(trifluoromethyl)phenyl)thiazole-4-carboxylate]	100	
